Each structure is given as a SMILES string. Bridge positions count the residues as written; N and C are the ends. Square brackets hold non-standard residues; d marks the D form. Peptide text beside a SMILES is read from it. Nle = CCCC[C@H](N)C(=O)O

T1 sequence (P22001 whole entry): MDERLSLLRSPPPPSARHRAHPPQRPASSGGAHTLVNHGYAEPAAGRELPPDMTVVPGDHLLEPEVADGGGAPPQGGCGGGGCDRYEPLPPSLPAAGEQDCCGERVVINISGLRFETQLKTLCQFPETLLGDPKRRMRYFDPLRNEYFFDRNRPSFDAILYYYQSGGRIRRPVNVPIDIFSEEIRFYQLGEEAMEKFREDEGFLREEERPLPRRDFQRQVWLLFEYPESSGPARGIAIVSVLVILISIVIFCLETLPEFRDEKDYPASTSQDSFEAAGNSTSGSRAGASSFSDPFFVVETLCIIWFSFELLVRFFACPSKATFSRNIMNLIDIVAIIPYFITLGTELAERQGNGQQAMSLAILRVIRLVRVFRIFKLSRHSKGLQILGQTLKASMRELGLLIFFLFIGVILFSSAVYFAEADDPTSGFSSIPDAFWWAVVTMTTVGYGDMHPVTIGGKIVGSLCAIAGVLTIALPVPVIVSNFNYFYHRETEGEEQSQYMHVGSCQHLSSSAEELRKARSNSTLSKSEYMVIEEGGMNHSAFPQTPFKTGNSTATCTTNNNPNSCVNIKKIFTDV

This experiment concerns the target T1, human Kv1.3 voltage-gated K+ channel (Homo sapiens, UniProt P22001).
T1 construct: host or cells: CHO-DUKX
The experiment in a line: cell-based. Conditions: inhibition of thallium flux, CHO-DUKX cells with human Kv1.3; read-out: IC50.
By IC50 is commonly meant the concentration needed to halve the response being measured. As for `CCCC[C@H](NC(=O)[C@H](CC(=O)O)NC(=O)[C@H](CCCC)NC(=O)[C@@H](N)CO)C(=O)N[C@@H](CCCNC(=N)N)C(=O)N[C@H]1CSSC[C@@H]2NC(=O)[C@H](CCCCN)NC(=O)CNC(=O)[C@H](Cc3ccccc3)NC(=O)[C@H]([C@@H](C)CC)NC(=O)[C@H](CO)NC(=O)CNC(=O)[C@H]([C@@H](C)CC)NC(=O)[C@H](C)NC(=O)[C@H](CCCCN)NC(=O)[C@H](CC(C)C)NC(=O)[C@@H]3CSSC[C@@H](C(=O)N[C@@H](Cc4ccc(O)cc4)C(=O)N4CCC[C@H]4C(=O)N[C@@H](CCCNC(=N)N)C(N)=O)NC(=O)[C@H](CCCCN)NC(=O)[C@H](CSSC[C@H](NC(=O)[C@H](CCC(=O)O)NC(=O)[C@H](C(C)C)NC(=O)[C@H](CC(C)C)NC(=O)[C@H](C)NC(=O)[C@H](CO)NC1=O)C(=O)N[C@@H](CCCCN)C(=O)N[C@@H](CCC(N)=O)C(=O)N[C@@H](CCCCN)C(=O)N3)NC(=O)[C@H](CCCCN)NC(=O)[C@H](CCCCN)NC(=O)[C@H](CC(N)=O)NC(=O)[C@H](CCSC)NC2=O` [Compound 89] (H-S[Nle]D[Nle]RCSALVECKQKCLKAIGSIFGKCMNKKCKCYPR-NH2; disulfide 6-27, 12-32, 16-34), the IC50 came to 2.7 nM.
With `CCCC[C@@H]1NC(=O)[C@@H]2CSSC[C@H](NC(=O)[C@H](CCCNC(=N)N)NC(C)=O)C(=O)N[C@@H](CO)C(=O)N[C@@H](C)C(=O)N[C@@H](CO)C(=O)N[C@@H](C(C)C)C(=O)N[C@@H](CCC(=O)O)C(=O)N[C@H]3CSSC[C@H](NC(=O)[C@H](CCCCN)NC(=O)[C@H](CCCCN)NC(=O)[C@H](CC(N)=O)NC1=O)C(=O)N[C@@H](CCCCN)C(=O)N[C@H](C(=O)N[C@@H](Cc1ccc(O)cc1)C(=O)N1CCC[C@H]1C(=O)N[C@@H](CCCNC(=N)N)C(=O)O)CSSC[C@H](NC(=O)[C@H](CCCCN)NC(=O)[C@H](CCC(N)=O)NC(=O)[C@H](CCCCN)NC3=O)C(=O)N[C@@H](CC(C)C)C(=O)N[C@@H](CCCCN)C(=O)N[C@@H](C)C(=O)N[C@@H]([C@@H](C)CC)C(=O)NCC(=O)N[C@@H](CO)C(=O)N[C@@H]([C@@H](C)CC)C(=O)N[C@@H](Cc1ccccc1)C(=O)NCC(=O)N[C@@H](CCCCN)C(=O)N2` [Compound 113] (Ac-RCSASVECKQKCLKAIGSIFGKC[Nle]NKKCKCYPR-OH; disulfide 2-23, 8-28, 12-30), the IC50 worked out at 0.34 nM.
As for `CCCC[C@H](NC(=O)[C@@H]1CCCN1)C(=O)N[C@@H](CCC(=O)O)C(=O)N[C@@H](CCCC)C(=O)N[C@@H](CCCNC(=N)N)C(=O)N[C@H]1CSSC[C@@H]2NC(=O)[C@H](CCCCN)NC(=O)CNC(=O)[C@H](Cc3ccccc3)NC(=O)[C@H]([C@@H](C)CC)NC(=O)[C@H](CO)NC(=O)CNC(=O)[C@H]([C@@H](C)CC)NC(=O)[C@H](C)NC(=O)[C@H](C)NC(=O)[C@H](CC(C)C)NC(=O)[C@@H]3CSSC[C@@H](C(=O)N[C@@H](Cc4ccc(O)cc4)C(=O)N4CCC[C@H]4C(=O)N[C@@H](CCCNC(=N)N)C(=O)O)NC(=O)[C@H](CCCCN)NC(=O)[C@H](CSSC[C@H](NC(=O)[C@H](CCC(=O)O)NC(=O)[C@H](C(C)C)NC(=O)[C@H](CO)NC(=O)[C@H](CC(C)C)NC(=O)[C@H](CO)NC1=O)C(=O)N[C@@H](CCCCN)C(=O)N[C@@H](CCC(N)=O)C(=O)N[C@@H](CCCCN)C(=O)N3)NC(=O)[C@H](CCCCN)NC(=O)[C@H](CCCCN)NC(=O)[C@H](CC(N)=O)NC(=O)[C@H](CCCC)NC2=O` [Compound 136] (H-P[Nle]E[Nle]RCSLSVECKQKCLAAIGSIFGKC[Nle]NKKCKCYPR-OH; disulfide 6-27, 12-32, 16-34), the IC50 turned out to be 6.24 nM.
As to `CCCC[C@H](NC(=O)[C@@H]1CCCN1)C(=O)N[C@@H](CCC(=O)O)C(=O)N[C@@H](CCCC)C(=O)N[C@@H](CCCNC(=N)N)C(=O)N[C@H]1CSSC[C@@H]2NC(=O)[C@H](CCCCN)NC(=O)CNC(=O)[C@H](Cc3ccccc3)NC(=O)[C@H]([C@@H](C)CC)NC(=O)[C@H](CO)NC(=O)CNC(=O)[C@H]([C@@H](C)CC)NC(=O)[C@H](C)NC(=O)[C@H](C)NC(=O)[C@H](CC(C)C)NC(=O)[C@@H]3CSSC[C@@H](C(=O)N[C@@H](Cc4ccc(O)cc4)C(=O)N4CCC[C@H]4C(=O)N[C@@H](CCCNC(=N)N)C(=O)N[C@@H](Cc4c[nH]cn4)C(=O)O)NC(=O)[C@H](CCCCN)NC(=O)[C@H](CSSC[C@H](NC(=O)[C@H](CCC(=O)O)NC(=O)[C@H](C(C)C)NC(=O)[C@H](CO)NC(=O)[C@H](C)NC(=O)[C@H](CO)NC1=O)C(=O)N[C@@H](CCCCN)C(=O)N[C@@H](CCC(N)=O)C(=O)N[C@@H](CCCCN)C(=O)N3)NC(=O)[C@H](CCCCN)NC(=O)[C@H](CCCCN)NC(=O)[C@H](CC(N)=O)NC(=O)[C@H](CCCC)NC2=O` [Compound 125] (H-P[Nle]E[Nle]RCSASVECKQKCLAAIGSIFGKC[Nle]NKKCKCYPRH-OH; disulfide 6-27, 12-32, 16-34), the half-maximal inhibitory concentration (IC50) stood at 0.383 nM.
As to `CC[C@H](C)[C@@H]1NC(=O)[C@H](CO)NC(=O)CNC(=O)[C@H](CCC(=O)O)NC(=O)[C@H](C)NC(=O)[C@H](CCCCN)NC(=O)[C@H](CC(C)C)NC(=O)[C@@H]2CSSC[C@@H](C(=O)N[C@@H](Cc3ccc(O)cc3)C(=O)N3CCC[C@H]3C(=O)N[C@@H](CCCNC(=N)N)C(N)=O)NC(=O)[C@H](CCCCN)NC(=O)[C@@H]3CSSC[C@H](NC(=O)[C@H](CCC(=O)O)NC(=O)[C@H](C(C)C)NC(=O)[C@H](CO)NC(=O)[C@H](C)NC(=O)[C@H](CO)NC(=O)[C@@H](NC(=O)[C@H](CCCNC(=N)N)NC(=O)[C@H](CCSC)NC(=O)[C@H](CC(=O)O)NC(=O)[C@H](CCSC)NC(=O)[C@@H](N)CC(N)=O)CSSC[C@H](NC(=O)[C@H](CCCCN)NC(=O)CNC(=O)[C@H](Cc4ccccc4)NC1=O)C(=O)N[C@@H](CCSC)C(=O)N[C@@H](CC(N)=O)C(=O)N[C@@H](CCCCN)C(=O)N[C@@H](CCCCN)C(=O)N3)C(=O)N[C@@H](CCCCN)C(=O)N[C@@H](CCC(N)=O)C(=O)N[C@@H](CCCCN)C(=O)N2` [Compound 59] (H-NMDMRCSASVECKQKCLKAEGSIFGKCMNKKCKCYPR-NH2; disulfide 6-27, 12-32, 16-34), the IC50 turned out to be 0.035 nM.
The same measure for `CCCC[C@H](NC(=O)[C@@H]1CCCN1)C(=O)N[C@@H](CCC(=O)O)C(=O)N[C@@H](CCCC)C(=O)N[C@@H](CCCNC(=N)N)C(=O)N[C@H]1CSSC[C@@H]2NC(=O)[C@H](CCCCN)NC(=O)CNC(=O)[C@H](Cc3ccccc3)NC(=O)[C@H]([C@@H](C)CC)NC(=O)[C@H](CO)NC(=O)CNC(=O)[C@H]([C@@H](C)CC)NC(=O)[C@H](C)NC(=O)[C@H](C)NC(=O)[C@H](CC(C)C)NC(=O)[C@@H]3CSSC[C@@H](C(=O)N[C@@H](Cc4ccc(O)cc4)C(=O)N4CCC[C@H]4C(=O)N[C@@H](CCCNC(=N)N)C(=O)O)NC(=O)[C@H](CCCCN)NC(=O)[C@H](CSSC[C@H](NC(=O)[C@H](CCC(=O)O)NC(=O)[C@H](C(C)C)NC(=O)[C@H](CO)NC(=O)[C@H](C)NC(=O)[C@H](CO)NC1=O)C(=O)N[C@@H](CC(C)C)C(=O)N[C@@H](CCC(N)=O)C(=O)N[C@@H](CCCCN)C(=O)N3)NC(=O)[C@H](CCCCN)NC(=O)[C@H](CCCCN)NC(=O)[C@H](CC(N)=O)NC(=O)[C@H](CCCC)NC2=O` [Compound 140] (H-P[Nle]E[Nle]RCSASVECLQKCLAAIGSIFGKC[Nle]NKKCKCYPR-OH; disulfide 6-27, 12-32, 16-34): 3.57 nM; for `CCCC[C@H](NC(=O)[C@@H]1CCCN1)C(=O)N[C@@H](CCC(=O)O)C(=O)N[C@@H](CCCC)C(=O)N[C@@H](CCCNC(=N)N)C(=O)N[C@H]1CSSC[C@@H]2NC(=O)[C@H](CCCCN)NC(=O)CNC(=O)[C@H](Cc3ccccc3)NC(=O)[C@H]([C@@H](C)CC)NC(=O)[C@H](CO)NC(=O)CNC(=O)[C@H]([C@@H](C)CC)NC(=O)[C@H](C)NC(=O)[C@H](C)NC(=O)[C@H](CC(C)C)NC(=O)[C@@H]3CSSC[C@@H](C(=O)N[C@@H](Cc4ccc(O)cc4)C(=O)N4CCC[C@H]4C(=O)N[C@@H](CCCNC(=N)N)C(=O)O)NC(=O)[C@H](CCCCN)NC(=O)[C@H](CSSC[C@H](NC(=O)[C@H](CCC(=O)O)NC(=O)[C@H](C(C)C)NC(=O)[C@H](CO)NC(=O)[C@H](C)NC(=O)[C@H](CO)NC1=O)C(=O)N[C@@H](CCCCN)C(=O)N[C@@H](CCC(=O)O)C(=O)N[C@@H](CCCCN)C(=O)N3)NC(=O)[C@H](CCCCN)NC(=O)[C@H](CCCCN)NC(=O)[C@H](CC(N)=O)NC(=O)[C@H](CCCC)NC2=O` [Compound 118] (H-P[Nle]E[Nle]RCSASVECKEKCLAAIGSIFGKC[Nle]NKKCKCYPR-OH; disulfide 6-27, 12-32, 16-34): 1.39 nM.
Turning to `CCCC[C@H](NC(=O)[C@@H]1CCCN1)C(=O)N[C@@H](CCC(=O)O)C(=O)N[C@@H](CCCC)C(=O)N[C@@H](CCCNC(=N)N)C(=O)N[C@H]1CSSC[C@@H]2NC(=O)[C@H](CCCCN)NC(=O)CNC(=O)[C@H](Cc3ccccc3)NC(=O)[C@H]([C@@H](C)CC)NC(=O)[C@H](CO)NC(=O)CNC(=O)[C@H]([C@@H](C)CC)NC(=O)[C@H](C)NC(=O)[C@H](C)NC(=O)[C@H](CC(C)C)NC(=O)[C@@H]3CSSC[C@@H](C(=O)N[C@@H](Cc4ccc(O)cc4)C(=O)N4CCC[C@H]4C(=O)N[C@@H](CCCNC(=N)N)C(=O)N[C@@H](CCCCN)C(=O)N[C@@H](CO)C(=O)O)NC(=O)[C@H](CCCCN)NC(=O)[C@H](CSSC[C@H](NC(=O)[C@H](CCC(=O)O)NC(=O)[C@H](C(C)C)NC(=O)[C@H](CO)NC(=O)[C@H](C)NC(=O)[C@H](CO)NC1=O)C(=O)N[C@@H](CCCCN)C(=O)N[C@@H](CCC(N)=O)C(=O)N[C@@H](CCCCN)C(=O)N3)NC(=O)[C@H](CCCCN)NC(=O)[C@H](CCCCN)NC(=O)[C@H](CC(N)=O)NC(=O)[C@H](CCCC)NC2=O` [Compound 127] (H-P[Nle]E[Nle]RCSASVECKQKCLAAIGSIFGKC[Nle]NKKCKCYPRKS-OH; disulfide 6-27, 12-32, 16-34), the IC50 is 0.562 nM.

For the origin of these results see patent US11780893B2, “Kv1.3 blockers” (Zealand Pharma A/S, priority 2019, dated 2023).
